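48-hour exposure; five concentrations; linearly interpolated endpoints. GI50 marks 50% less growth.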 Calls of active or inactive are those of the source. Rule as the data show it: active = GI50 up to about 1.1 µM and inactive = higher.

Some test systems named below: ACHN; CAKI-1; HCT-15; K562; LOX IMVI; MDA-MB-231; MOLT-4; NCI-H226; NCI-H460; NCI/ADR-RES; OVCAR-5; RPMI-8226; SF-295; SK-OV-3; SN12C; U-251; DU-145; MDA-MB-435; SR; UACC-62.
What all share (experiment): NCI tumour cell line growth inhibition, 48 h

Take `C=CCCCCCCC#CCCCCCCCCCC[C@@H]1C(=O)O[C@H](C)[C@@H]1O.CCCCCCCCC#CCCCCCCCCCC[C@@H]1C(=O)O[C@H](C)[C@@H]1O`: the GI50 is 17.7 µM (inactive) in the experiment on ACHN; 15.5 µM (inactive) with CAKI-1; 20.2 µM with HCT-15; 6.19 µM (inactive) in the experiment on K562; 12.9 µM (inactive) in the experiment on LOX IMVI; 23.6 µM (inactive) with MDA-MB-231. In addition, the GI50 is 12.6 µM (inactive) with MOLT-4; 27.1 µM (inactive) in the experiment on NCI-H226; 11.7 µM (inactive) in the experiment on NCI-H460; 9.59 µM (inactive) with NCI/ADR-RES; 59.2 µM (inactive) in the experiment on OVCAR-5; 16.5 µM (inactive) in the experiment on RPMI-8226. Also, the GI50 was 18.8 µM (inactive) in the experiment with SF-295, 36.6 µM (inactive) in the experiment on SK-OV-3, 15.3 µM (inactive) with SN12C and 18.7 µM (inactive) with U-251.
Regarding `C/N=C(\N)N/N=C(\C)c1ccc2oc3ccc(/C(C)=N/N/C(N)=N/C)cc3c2c1`, the GI50 is 5.45 µM (inactive) in the experiment on ACHN; 19.4 µM (inactive) in the experiment with CAKI-1; 2.35 µM (inactive) in the experiment on DU-145; above 23 µM in the experiment on HCT-15; 2.15 µM (inactive) in the experiment with K562; 2.56 µM (inactive) with LOX IMVI. The GI50 was 2.92 µM (inactive) in the experiment on MDA-MB-435; 0.805 µM (active) with MOLT-4; 2.08 µM (inactive) in the experiment on NCI-H226; 1.98 µM (inactive) with NCI-H460; > 39.1 µM (inactive) in the experiment on NCI/ADR-RES; 9.35 µM (inactive) in the experiment on OVCAR-5. The GI50 with RPMI-8226 was 2.38 µM (inactive); in the experiment on SF-295, 3.85 µM (inactive); in the experiment with SK-OV-3, 3.16 µM (inactive); in the experiment with SN12C it was 2.46 µM (inactive); in the experiment with SR it was 1.51 µM (inactive); in the experiment with U-251 it was 1.61 µM (inactive). Besides, in the experiment with UACC-62, the GI50 was 2.88 µM (inactive).
As to `C/C(=N\NC(N)=S)c1ccc2c(c1)OCO2`, the GI50 in the experiment on ACHN is > 100 µM (inactive); in the experiment on CAKI-1, > 100 µM (inactive); in the experiment on HCT-15, above 100 µM; with K562 it was > 100 µM (inactive); with LOX IMVI it was > 100 µM (inactive); in the experiment with MOLT-4, > 100 µM (inactive). Besides, the GI50 in the experiment with NCI-H226, in the experiment on NCI-H460, with OVCAR-5, in the experiment on RPMI-8226, in the experiment with SF-295 and with SK-OV-3 was > 100 µM (inactive) throughout. Besides, the GI50 in the experiment with SN12C, with SR, in the experiment with U-251 and with UACC-62 was > 100 µM (inactive) throughout.
For the compound `Oc1c(Cl)c(Cl)c(O)c(CCNc2ccc3ncccc3c2)c1Cl`, the GI50 with ACHN was 13.7 µM (inactive); in the experiment with CAKI-1, 12.6 µM (inactive); with DU-145, 21.5 µM (inactive); with HCT-15 it was 14.9 µM; in the experiment with K562, 3.47 µM (inactive); in the experiment with MDA-MB-435, 5.2 µM (inactive). For the same compound, the GI50 in the experiment with MOLT-4 was 1.15 µM (inactive); in the experiment on NCI-H460, 18.9 µM (inactive); in the experiment on NCI/ADR-RES, 12.2 µM (inactive); with OVCAR-5 it was 20.9 µM (inactive); in the experiment with SF-295, 11.4 µM (inactive); in the experiment on SK-OV-3 it was 11.8 µM (inactive). Besides, the GI50 was 13.9 µM (inactive) with SN12C, 3.14 µM (inactive) with SR, 8.87 µM (inactive) with U-251 and 10.9 µM (inactive) in the experiment on UACC-62.
Regarding `Cc1ccccc1Nc1cn(CCOc2ccccc2)c(=O)n(CCOc2ccccc2)c1=O`, the GI50 in the experiment with ACHN was > 100 µM (inactive); in the experiment with CAKI-1 it was > 100 µM (inactive); in the experiment with DU-145, > 100 µM (inactive); in the experiment with HCT-15, above 100 µM; in the experiment on K562, > 100 µM (inactive); in the experiment with LOX IMVI, > 100 µM (inactive). Moreover, the GI50 in the experiment with MDA-MB-435, with MOLT-4, with NCI-H460, with NCI/ADR-RES, with OVCAR-5 and in the experiment with RPMI-8226 was > 100 µM (inactive) throughout. For the same compound, the GI50 with SF-295, with SN12C, in the experiment with U-251 and with UACC-62 was > 100 µM (inactive) each time.

The values are drawn from ChEMBL document CHEMBL1201862, “PubChem BioAssay data set” (2004).
